Like-named read-outs stand apart in the source and are kept apart here.
Experiments:
hSTING(H232) = biological target: T1, hSTING(H232) (Homo sapiens, UniProt Q86WV6); assay: Luciferase reporter assay in HEK293T-hSTING-Luciferase cells, H232 polymorph; type: cell-based; settings: 20 hr stimulation, read-out: H232 activity (EC50 range)
T1 construct: host or cells: HEK293T
Source text: (§1) • a) Stable STING expressing cells—Stable HEK293T STING-expressing cell lines were generated using plasmids purchased from Invivogen, Calif., USA, that contain STING cDNA cloned into the pUNO-1 vector under hEF1-HTLV promoter and containing the Blasticidin selection cassette. The plasmids hSTING(R232), hSTING(H232), hSTING(HAQ) were directly procured from Invivogen while hSTING (AQ) and hSTING (Q) were derived from hSTING(HAQ) and hSTING (R232) plasmids respectively by using a PCR based site directed mutagenesis method. These vectors were individually transfected into HEK293T cells using Lipofectamine (Invitrogen) and transfected cells were selected under Blasticidin selection. These transfected cells were further subjected to clonal selection using the limiting dilution method to obtain clonally pure populations of HEK cells transfected with each of the above mentioned human STING variants. Only those clones were selected in which ligand independent activation of STING was minimal. • b) Stable Luciferase reporter gene expressing cells—Stable HEK293T Luciferase reporter gene expressing cell lines were generated using pCDNA4 plasmids under an IRF-inducible promoter. This promoter is comprised of five tandem interferon-stimulated response elements (ISRE) fused to an ISG54 minimal promoter. This vector was transfected into HEK293T cells using Lipofectamine (Invitrogen) and transfected cells were selected under Zeocin selection. These transfected cells were further subjected to clonal selection using the limiting dilution method to obtain clonally pure populations of HEK cells transfected the Luciferase reporter construct. Only those clones were selected in which ligand independent induction of luciferase was minimal.
(§2) 5×10^5 clonally selected HEK293T-hSTING-Luciferase cells were seeded in 384-well plates in growth medium and stimulated with novel compounds. After 20 hr of stimulation supernatant were removed and secretary reporter gene activity were measured using the Quanti-Luc detection system (Invivogen) on a Spectramax i3X luminometer.
(§3) The 5 major polymorphisms of human STING are shown in FIG. 1, with their prevalence in human populations indicated.

hSTING(HAQ) = biological target: T2, hSTING(HAQ) (Homo sapiens, UniProt Q86WV6, G230A/H232R/R293Q/R71H); assay: Luciferase reporter assay in HEK293T-hSTING-Luciferase cells, HAQ polymorph; type: cell-based; settings: 20 hr stimulation, read-out: HAQ activity (EC50 range)
T2 construct: host or cells: HEK293T
T2 sequence (Q86WV6 whole entry R71H/G230A/H232R/R293Q): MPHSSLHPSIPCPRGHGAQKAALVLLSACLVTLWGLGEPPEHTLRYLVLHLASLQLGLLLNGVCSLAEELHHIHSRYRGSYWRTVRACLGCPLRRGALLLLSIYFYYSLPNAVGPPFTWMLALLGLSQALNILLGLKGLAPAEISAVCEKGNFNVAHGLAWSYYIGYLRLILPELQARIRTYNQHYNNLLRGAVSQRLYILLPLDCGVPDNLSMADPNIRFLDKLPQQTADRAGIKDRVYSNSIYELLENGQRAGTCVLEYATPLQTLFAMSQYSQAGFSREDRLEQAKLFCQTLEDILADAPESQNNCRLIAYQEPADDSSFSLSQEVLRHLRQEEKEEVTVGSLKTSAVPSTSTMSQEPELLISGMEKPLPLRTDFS
Source text: as §1, §2, §3

WT/R232 STING protein = biological target: T3, WT/R232 STING protein (Homo sapiens, UniProt Q86WV6, H232R); assay: Luciferase reporter assay in HEK293T-hSTING-Luciferase cells, WT/R232; type: cell-based; settings: 20 hr stimulation, read-out: R232 Activity (EC50 range)
T3 construct: host or cells: HEK293T
T3 sequence (Q86WV6 whole entry H232R): as the sequence (Q86WV6 whole entry R71H/G230A/H232R/R293Q) above, with H71R, A230G, Q293R counted along it
Outline: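 Clonal HEK293T cells stably expressing human STING R232 plus an ISRE/ISG54-driven luciferase reporter, 5×10^5 per well, stimulated with compounds for 20 h. Secreted luciferase in supernatant measured by luminescence; […].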

IRF pathway = assay: Reporter gene expression assay in THP1-Dual cells, IRF axis (secreted Lucia luciferase); type: cell-based, human; settings: read-out: THP-IRF activity (EC50 range)
Outline: (§4)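 THP-1-derived cells carrying inducible NF-κB-SEAP and IRF-Lucia reporters, seeded at 5×10^5 and stimulated with compounds. After […], supernatant SEAP read with QUANTI-Blue and Lucia luciferase with QUANTI-Luc.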

NF-κB pathway = assay: Reporter gene expression assay in THP1-Dual cells, NFkB axis (secreted SEAP); type: cell-based, human; settings: read-out: THP-NFKB activity (EC50 range)
Outline: as §4

T1 sequence (Q86WV6 whole entry): as the sequence (Q86WV6 whole entry R71H/G230A/H232R/R293Q) above, with H71R, A230G, R232H, Q293R counted along it

| Compound | EC50 (hSTING(H232)) [µM] | EC50 (hSTING(HAQ)) [µM] | EC50 (WT/R232 STING protein) [µM] | EC50 (IRF pathway; Homo sapiens, THP1-Dual) [µM] | EC50 (NF-κB pathway; Homo sapiens, THP1-Dual) [µM] | EC50 (IRF pathway) [µM] | EC50 (NF-κB pathway) [µM] |
| --- | --- | --- | --- | --- | --- | --- | --- |
| CC1Sc2ncc(C(=O)NCc3c(F)cc(F)cc3F)cc2N(Cc2cc(F)cc(F)c2)C1=O (stereo not drawn) [Example 192, 1-(3,5-difluorobenzyl)-3-methyl-2-oxo-N-(2,4,6-trifluorobenzyl)-2,3-dihydro-1H-pyrido[2,3-b][1,4]thiazine-7-carboxamide] | < 1 | < 1 | < 1 | 1 to 10 | 1 to 10 |  |  |
| O=C(NCc1cc2ccccc2o1)c1cnc2c(c1)N(Cc1c(F)cccc1Cl)C(=O)CS2 [Example 197, N-(benzofuran-2-ylmethyl)-1-(2-chloro-6-fluorobenzyl)-2-oxo-2,3-dihydro-1H-pyrido[2,3-b][1,4]thiazine-7-carboxamide] | 1 to 10 | 1 to 10 | 1 to 10 | > 10 | > 10 |  |  |
| C[C@@H]1Oc2ccc(C(=O)NCc3c(F)cc(F)cc3F)cc2N(Cc2cc(F)cc(F)c2)C1=O [Example 243, (S)-4-(3,5-difluorobenzyl)-2-methyl-3-oxo-N-(2,4,6-trifluorobenzyl)-3,4-dihydro-2H-benzo[b][1,4] oxazine-6-carboxamide] | < 1 | < 1 | < 1 |  |  | > 10 | > 10 |
| Cc1ccc(CNC(=O)c2ccc3c(n2)N(Cc2cc(F)cc(F)c2)C(=O)C(C)S3)o1 (stereo not drawn) [Example 198, 4-(3,5-difluorobenzyl)-2-methyl-N-((5-methylfuran-2-yl)methyl)-3-oxo-3,4-dihydro-2H-pyrido[3,2-b][1,4]thiazine-6-carboxamide] | < 1 | < 1 | < 1 |  |  | 1 to 10 | 1 to 10 |
| Cc1ccc(CNC(=O)c2ccc3c(c2)N(Cc2cc(F)cc(F)c2)C(=O)C(C)S3)o1 (stereo not drawn) [Example 152, 4-(3,5-difluorobenzyl)-2-methyl-N-((5-methylfuran-2-yl)methyl)-3-oxo-3,4-dihydro-2H-benzo[b][1,4] thiazine-6-carboxamide] | > 10 | > 10 | < 1 | > 10 | > 10 |  |  |
| O=C(NCc1cc2ccccc2o1)c1ccc2c(c1)N(Cc1c(F)cccc1Cl)C(=O)CS2 [Example 40, N-(benzofuran-2-ylmethyl)-4-(2-chloro-6-fluorobenzyl)-3-oxo-3,4-dihydro-2H-benzo[b-1,4]thiazine-6-carboxamide] | 1 to 10 | 1 to 10 | < 1 | 1 to 10 | 1 to 10 |  |  |
| Cc1ccc(CNC(=O)c2ccc3c(n2)N(Cc2cc(F)cc(F)c2)C(=O)C(C)S3)o1 (stereo not drawn) [Example 203, 4-(3,5-difluorobenzyl)-2-methyl-N-((5-methylfuran-2-yl)methyl)-3-oxo-3,4-dihydro-2H-pyrido[3,2-b][1,4]thiazine-6-carboxamide] | 1 to 10 | 1 to 10 | 1 to 10 |  |  | > 10 | > 10 |
| Cc1cc(CN2C(=O)C(C)Sc3ccc(C(=O)NCc4c(F)cc(F)cc4F)cc32)on1 (stereo not drawn) [Example 158, 2-methyl-4-((3-methylisoxazol-5-yl)methyl)-3-oxo-N-(2,4,6-trifluorobenzyl)-3,4-dihydro-2H-benzo[b][1,4] thiazine-6-carboxamide] | 1 to 10 | 1 to 10 | < 1 | 1 to 10 | 1 to 10 |  |  |
| O=C(NCc1ccc(F)cc1F)c1ccc2c(n1)N(Cc1cc(F)cc(F)c1)C(=O)CC2 [Example 279, N-(2,4-difluorobenzyl)-8-(3,5-difluorobenzyl)-7-oxo-5,6,7,8-tetrahydro-1,8-naphthyridine-2-carboxamide] | > 10 | > 10 | 1 to 10 | > 10 | > 10 |  |  |
| O=C(NCc1c(F)cc(F)cc1F)c1ccc2c(c1)N(C(=O)c1c(F)cccc1Cl)CCS2 [Example 258, 4-(2-chloro-6-fluorobenzoyl)-N-(2,4,6-trifluorobenzyl)-3,4-dihydro-2H-benzo[b][1,4]thiazine-6-carboxamide] | > 10 | > 10 | 1 to 10 | > 10 | > 10 |  |  |
| Cc1cccc(CNC(=O)c2ccc3c(c2)N(Cc2cc(F)cc(F)c2)C(=O)C(C)S3)c1 (stereo not drawn) [Example 144, 4-(3,5-difluorobenzyl)-2-methyl-N-(3-methylbenzyl)-3-oxo-3,4-dihydro-2H-benzo[b-1,4]thiazine-6-carboxamide] | 1 to 10 | 1 to 10 | < 1 | 1 to 10 | 1 to 10 |  |  |
| CC1Sc2ccc(C(=O)NCc3c(F)cc(F)cc3F)cc2N(Cc2cc(F)cc(F)c2)C1=O (stereo not drawn) [Example 148, 4-(3,5-difluorobenzyl)-2-methyl-3-oxo-N-(2,4,6-trifluorobenzyl)-3,4-dihydro-2H-benzo[b][1,4] thiazine-6-carboxamide] | < 1 | < 1 | < 1 |  |  | 1 to 10 | < 1 |
| CC1Sc2ccc(C(=O)NCc3ccco3)cc2N(Cc2cc(F)cc(F)c2)C1=O (stereo not drawn) [Example 156, 4-(3,5-difluorobenzyl)-N-(furan-2-ylmethyl)-2-methyl-3-oxo-3,4-dihydro-2H-benzo [b][1,4]thiazine-6-carboxamide] | 1 to 10 | 1 to 10 | < 1 | 1 to 10 | 1 to 10 |  |  |
| Cc1ccc(CNC(=O)c2cnc3c(c2)N(Cc2c(F)cccc2Cl)C(=O)C(C)S3)o1 (stereo not drawn) [Example 195, 1-(2-chloro-6-fluorobenzyl)-3-methyl-N-((5-methylfuran-2-yl)methyl)-2-oxo-2,3-dihydro-1H-pyrido[2,3-b][1,4]thiazine-7-carboxamide] | 1 to 10 | 1 to 10 | < 1 | > 10 | 1 to 10 |  |  |
| C=CCC1Sc2ccc(C(=O)NCc3c(F)cc(F)cc3F)cc2N(Cc2c(F)cccc2Cl)C1=O (stereo not drawn) [Example 146, 2-allyl-4-(2-chloro-6-fluorobenzyl)-3-oxo-N-(2,4,6-trifluorobenzyl)-3,4-dihydro-2H-benzo[b-1,4]thiazine-6-carboxamide] | 1 to 10 | 1 to 10 | < 1 | > 10 | > 10 |  |  |
| CC1(CO)Sc2ccc(C(=O)NCc3ccc(F)cc3F)cc2N(Cc2c(F)cccc2Cl)C1=O (stereo not drawn) [Example 151, 4-(2-chloro-6-fluorobenzyl)-N-(2,4-difluorobenzyl)-2-(hydroxymethyl)-2-methyl-3-oxo-3,4-dihydro-2H-benzo[b][1,4] thiazine-6-carboxamide] | 1 to 10 | 1 to 10 | < 1 | 1 to 10 | 1 to 10 |  |  |
| C[C@@H]1Oc2ccc(C(=O)NCc3cc4ccccc4o3)cc2N(Cc2cc(F)cc(F)c2)C1=O [Example 235, (S)-N-(benzofuran-2-ylmethyl)-4-(3,5-difluorobenzyl)-2-methyl-3-oxo-3,4-dihydro-2H-benzo[b-1,4]oxazine-6-carboxamide] | 1 to 10 | 1 to 10 | < 1 | 1 to 10 | 1 to 10 |  |  |
| CCCC1Sc2ccc(C(=O)NCc3c(F)cc(F)cc3F)cc2N(Cc2c(F)cccc2Cl)C1=O (stereo not drawn) [Example 147, 4-(2-chloro-6-fluorobenzyl)-3-oxo-2-propyl-N-(2,4,6-trifluorobenzyl)-3,4-dihydro-2H-benzo[b-1,4]thiazine-6-carboxamide] | 1 to 10 | 1 to 10 | < 1 | > 10 | > 10 |  |  |

Reference: patent publication US20200138827A1, “SMALL MOLECULE MODULATORS OF HUMAN STING” (Curadev Pharma Limited, priority 2017, published 2020)
